Values joined by “and” are separate entries in the source; they are usually repeats but may differ in a detail not shown here. Equal entries are not always repeated. Marks after values point to notes of the source that are not given here. Bounds are passed on as bounds.

Series [1] concerns spontaneous hypertensive rats. Nature of the series: Arterial pressure and phenylephrine-induced hypertensive response after seven days of gavage (DGLA, aspirin, DGLA + aspirin). It counts as in vivo, rat. Here is the method: An in vivo investigation of anti-hypertension efficacy following co-administration of DGLA and aspirin in spontaneous hypertensive rats was conducted. This experiment investigated the efficacy of DGLA when co-administered chronically with aspirin to reduce the hypertensive response induced acutely by phenylephrine in spontaneous hypertensive rats. Spontaneously hypertensive adult male rats (250-300 g), bred by Charles River Laboratories, were used for this assay. The animals were identified upon arrival as per CCPA guidelines. The animals were pair-housed by group (low dose+aspirin, high dose+aspirin or aspirin alone) for the duration of the oral gavage prior to surgery. All animal care and vivarium maintenance was recorded, with documents kept at the test facility.
The concentrations of DGLA to be tested (50 and 500 mg/kg) as well as the concentration of aspirin (10 mg/kg) were selected by the Sponsor based on information available at the time of design of this study. They were selected to cover a range of concentrations useful for the identification of the mechanism of action of the test article.
All solution preparations were documented on a Solution Contents Form, defining labelling information and all relevant information on reagents: batch number, storage conditions, contents, and preparation/expiry dates.
The test article was formulated using olive oil as the vehicle. This stock solution was then administered by oral gavage once per day for seven consecutive days. A low and a high dose (50 mg/kg and 500 mg/kg) were tested.
A 5 mg/ml stock solution of aspirin was prepared by dissolving the appropriate amount of aspirin in 100% DMSO which was then diluted in water. The concentration of DMSO was less than 1%. The appropriate volume was administered by oral gavage to each animal once per day for seven consecutive days. The stock solution was stored at room temperature and was considered stable for the duration of the gavage.
The appropriate volume was administered to each animal by an intravenous injection at the end of the experiment on the surgery day. The stock solution was stored at 4° C. and was considered stable for the duration of the experiment.
A stock solution of phenylephrine of 1 mg/ml were prepared in PBS (pH=7.4±0.05). The stock solution was stored at 4° C. The expiration date was set at 14 days after preparation.
Male spontaneous hypertensive rats weighing approximately 300 g arrived at the facility at least two days before beginning the oral gavage. Animals were assigned to one of three groups (low dose+aspirin, high dose+aspirin, and aspirin), and were pair-housed during the acclimation period. Each group (n=4) received the appropriate compound by oral gavage using a 16 G feeding needle. The stock solution was administered once per day for seven consecutive days. On the seventh day of administration, the animals underwent surgery and hypertensive monitoring.
Rats were anesthetized with a 2.5-3.0% isoflurane-O2 mixture in an induction box. When the animals were removed from the induction box, they were connected onto a nose cone to maintain anesthesia during the tracheotomy. The animals were tracheotomised with an endotracheal tube (7 cm length from connector to the tip made with a PE205 tube from BD and a 16 G needle) to facilitate spontaneous breathing, stabilize hemodynamics, and to keep the rat under anesthesia with an isoflurane-O2 mixture. Two catheters were inserted: one in the right femoral artery for systemic arterial pressure (SAP) measurement, and one in the right femoral vein for delivery of the hypertensor and positive control. ECG signals were acquired with ECG contacts placed in a Lead-1 configuration on the anaesthetized animal, and a pulse oxymeter was attached to the animal's hind paw to enable continuous monitoring of the general condition of the rat during the surgical procedure.

The conditions of series [2]: in vivo.
Description: In Part one of the study, plasma PK analysis of Dihomo-Gamma-Linolenic Acid (DGLA) and 15-Hydroxyeicosatrienoic acid (15-HETrE), in fasted subjects alone, was performed for Cohorts one to four up to 312 hours post dose on study Days 1 to 5, 8, 14, and the follow-up visit.
Analysis of plasma concentrations of DGLA (free and total) and free 15-HETrE were performed in blood samples obtained from the subjects.
Analysis of all plasma and skin blister fluid samples was performed using validated methods. Concentrations of free and total DGLA were measured in plasma and skin blister fluid by liquid chromatography with tandem mass spectrometry (LC/MS/MS); the quantitation range was 100 to 10,000 ng/mL for free DGLA and 5000 to 500,000 ng/mL for total DGLA. Plasma concentrations of free 15-HETrE were measured by LC/MS/MS with a quantitation range of 100 to 10,000 ng/mL.
Where [3] appears, read: Aspirin 10 mg/kg, seven days of gavage, before phenylephrine.
The mark [4] stands for this setting: aspirin only (10 mg/kg), seven consecutive days of gavage.
The mark [5] stands for this setting: aspirin only (10 mg/kg), seven consecutive days of gavage, Rat #1-#5.

As to `CNC[C@H](O)c1cccc(O)c1` [phenylephrine], the “hypertensor effect on mean systemic arterial pressure” value in series [1] (3, 10, 20 μg/kg iv, rats fed with aspirin) is listed as “increased mean systemic arterial pressure with increasing doses”.
Turning to `COc1ccccc1OCCNCC(O)COc1cccc2[nH]c3ccccc3c12` (stereo not shown) [Carvedilol, carvedilol], the “effect on blood pressure” value in series [1] (0.1 mg/kg iv, DGLA+aspirin-fed animals) is given as “significant decrease in blood pressure”. Further, the “effect on mean systemic arterial pressure when added after phenylephrine” value in series [1] (0.1 mg/kg iv, aspirin-fed rats) is listed as “significant decrease”. The “Mean Arterial Pressure, individual rats” value was 57.12 mmHg and 44.38 mmHg and 145.56 mmHg and 134.82 mmHg and 115.06 mmHg in series [1] (gavage Aspirin 10 mg/kg 7 days, Carvedilol 0.1 mg/kg iv); 115.29 mmHg and 97.01 mmHg and 126.33 mmHg and 59.10 mmHg and 58.93 mmHg in series [1] (gavage DGLA 50 mg/kg + Aspirin 10 mg/kg 7 days, Carvedilol 0.1 mg/kg iv); 62.13 mmHg and 57.56 mmHg and 57.32 mmHg and 52.11 mmHg in series [1] (gavage DGLA 500 mg/kg + Aspirin 10 mg/kg 7 days, Carvedilol 0.1 mg/kg iv). For the same compound, the “Mean Arterial Pressure, Average SAP” value was 91.3 † mmHg in series [1] (gavage DGLA 50 mg/kg + Aspirin 10 mg/kg 7 days, Carvedilol 0.1 mg/kg iv, n=5) and 57.3 † mmHg in series [1] (gavage DGLA 500 mg/kg + Aspirin 10 mg/kg 7 days, Carvedilol 0.1 mg/kg iv, n=4).
As to `CC(=O)Oc1ccccc1C(=O)O` [Aspirin, aspirin], the “Arterial pressure, Diastol” value in series [1] (setting [3]) amounted to 100 mmHg. Besides, the “Arterial pressure, Systol” value in series [1] (setting [3]) came to 190 mmHg. Moreover, the “Mean systemic arterial pressure” value in series [1] (setting [3]) is reported as 130 mmHg. Further, in series [1] (setting [4]), the “Mean arterial pressure at baseline, Average SAP” value is 136.8 mm of Hg. In addition, the “Mean arterial pressure with an intravenous dose of Phenylephrine 20 μg/kg, Average SAP” value in series [1] (setting [4]) was 174.3 mm of Hg. In addition, the “Mean arterial pressure at baseline, individual rats” value in series [1] (setting [5]) is 86.75 mm of Hg and 107.64 mm of Hg and 160.50 mm of Hg and 141.36 mm of Hg and 187.84 mm of Hg. The “Mean arterial pressure with an intravenous dose of Phenylephrine 20 μg/kg, individual rats” value in series [1] (setting [5]) is 149.35 mm of Hg and 120.84 mm of Hg and 202.61 mm of Hg and 194.76 mm of Hg and 203.90 mm of Hg. Further, the “Mean Arterial Pressure, individual rats” value in series [1] (gavage Aspirin 10 mg/kg 7 days, Baseline) was 86.75 mmHg and 107.64 mmHg and 160.50 mmHg and 141.36 mmHg and 187.84 mmHg; in series [1] (gavage Aspirin 10 mg/kg 7 days, PHE 3 μg/kg iv) it was 97.24 mmHg and 122.18 mmHg and 168.06 mmHg and 150.54 mmHg and 192.06 mmHg; in series [1] (gavage Aspirin 10 mg/kg 7 days, PHE 10 μg/kg iv) it was 137.63 mmHg and 122.18 mmHg and 203.75 mmHg and 169.61 mmHg and 201.69 mmHg; in series [1] (gavage Aspirin 10 mg/kg 7 days, PHE 10 μg/kg iv after Carvedilol), 93.22 mmHg and 52.61 mmHg and 185.63 mmHg and 171.45 mmHg and 187.96 mmHg; in series [1] (gavage Aspirin 10 mg/kg 7 days, PHE 20 μg/kg iv), 149.35 mmHg and 120.84 mmHg and 202.61 mmHg and 194.76 mmHg and 203.90 mmHg; in series [1] (gavage Aspirin 10 mg/kg 7 days, second Baseline after PHE 20 μg/kg) it was 98.38 mmHg and 64.32 mmHg and 164.88 mmHg and 159.32 mmHg and 177.61 mmHg. Moreover, the “Mean Arterial Pressure, Average” value is 136.8 mmHg in series [1] (gavage Aspirin 10 mg/kg 7 days, Baseline, n=5); 146.0* mmHg in series [1] (gavage Aspirin 10 mg/kg 7 days, PHE 3 μg/kg iv, n=5); 138.2 § mmHg in series [1] (gavage Aspirin 10 mg/kg 7 days, PHE 10 μg/kg iv after Carvedilol, n=5); 167.0* mmHg in series [1] (gavage Aspirin 10 mg/kg 7 days, PHE 10 μg/kg iv, n=5); 174.3* mmHg in series [1] (gavage Aspirin 10 mg/kg 7 days, PHE 20 μg/kg iv, n=5); 132.9** mmHg in series [1] (gavage Aspirin 10 mg/kg 7 days, second Baseline after PHE 20 μg/kg, n=5).
With `CCCCC[C@H](O)/C=C/C=C\C/C=C\CCCCCCC(=O)O` [15-HETrE, 15-Hydroxyeicosatrienoic acid], in series [2], the “plasma free 15-HETrE concentrations after DS107G” value is given as under 100 ng/mL.
